This is an account of results in patent US20250313575A1, “MACROCYCLES AS LRRK2 INHIBITORS, PHARMACEUTICAL COMPOSITIONS, AND USES THEREOF” (Merck Sharp & Dohme LLC, priority 2022, published 2025).

Bounds are passed on as bounds.

In the experiment the target is GST-tagged truncated human mutant G2019S LRRK2 (Homo sapiens (Human), UniProt Q5S007, G2019S). Description: LRRK2 G2019S Km ATP LanthaScreen assay. It is filed as biochemical. As to conditions: G2019S LRRK2, 134 μM ATP (Km ATP), LRRKtide substrate. In a few lines: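 Ten-point compound series (highest 9.99 μM in DMSO) preincubated 15 min with 1.25 nM GST-tagged truncated human LRRK2 G2019S, then 90 min reaction at ambient temperature with 134 μM ATP (Km) and fluorescein-labelled LRRKtide, pH 8.5. Phosphorylation read as 520/495 nm emission ratio via Tb-labelled antibody; IC50 from 4P logistic regression.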
GST-tagged truncated human mutant G2019S LRRK2, sequence (Q5S007 970-2527 G2019S): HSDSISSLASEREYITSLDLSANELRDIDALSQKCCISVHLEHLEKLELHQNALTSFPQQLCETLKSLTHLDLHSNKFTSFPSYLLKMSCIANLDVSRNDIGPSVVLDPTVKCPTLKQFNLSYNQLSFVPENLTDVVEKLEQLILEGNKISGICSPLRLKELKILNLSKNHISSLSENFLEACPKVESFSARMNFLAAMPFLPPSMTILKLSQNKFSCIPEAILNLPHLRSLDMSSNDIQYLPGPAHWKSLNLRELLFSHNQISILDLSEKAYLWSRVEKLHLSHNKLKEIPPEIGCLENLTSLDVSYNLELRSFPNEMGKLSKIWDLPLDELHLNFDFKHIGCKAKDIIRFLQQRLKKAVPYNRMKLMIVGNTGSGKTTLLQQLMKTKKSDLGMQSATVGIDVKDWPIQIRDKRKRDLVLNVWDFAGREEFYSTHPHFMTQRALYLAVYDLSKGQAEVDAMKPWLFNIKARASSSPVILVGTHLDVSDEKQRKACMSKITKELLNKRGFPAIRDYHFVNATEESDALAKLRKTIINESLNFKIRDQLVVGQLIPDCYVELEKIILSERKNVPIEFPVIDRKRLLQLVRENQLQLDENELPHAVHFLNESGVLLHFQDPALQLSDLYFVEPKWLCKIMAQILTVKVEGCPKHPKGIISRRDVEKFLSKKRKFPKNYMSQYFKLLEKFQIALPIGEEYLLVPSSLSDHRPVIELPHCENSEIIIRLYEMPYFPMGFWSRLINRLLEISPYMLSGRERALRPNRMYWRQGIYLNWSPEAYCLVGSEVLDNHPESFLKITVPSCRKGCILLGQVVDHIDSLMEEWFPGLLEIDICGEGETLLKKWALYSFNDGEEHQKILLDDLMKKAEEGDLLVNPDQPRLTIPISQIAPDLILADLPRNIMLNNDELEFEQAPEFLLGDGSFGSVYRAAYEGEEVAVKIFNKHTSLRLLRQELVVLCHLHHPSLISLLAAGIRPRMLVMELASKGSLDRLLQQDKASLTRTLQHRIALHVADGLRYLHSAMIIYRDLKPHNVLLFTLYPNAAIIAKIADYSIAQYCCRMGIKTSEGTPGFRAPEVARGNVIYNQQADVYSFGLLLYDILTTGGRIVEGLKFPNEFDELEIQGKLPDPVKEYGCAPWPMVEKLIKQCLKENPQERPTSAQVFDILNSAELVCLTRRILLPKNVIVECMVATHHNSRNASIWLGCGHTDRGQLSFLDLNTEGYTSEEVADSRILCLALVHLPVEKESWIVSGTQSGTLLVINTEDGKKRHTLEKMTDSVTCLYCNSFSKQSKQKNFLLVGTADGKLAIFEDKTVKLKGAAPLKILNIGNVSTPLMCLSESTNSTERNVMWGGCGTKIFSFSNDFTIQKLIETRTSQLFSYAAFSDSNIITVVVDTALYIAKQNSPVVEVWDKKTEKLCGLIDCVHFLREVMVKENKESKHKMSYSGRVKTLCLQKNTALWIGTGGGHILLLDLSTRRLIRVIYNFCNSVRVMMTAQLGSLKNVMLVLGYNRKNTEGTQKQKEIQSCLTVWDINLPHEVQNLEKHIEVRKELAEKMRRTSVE
For orientation: Time-resolved FRET reads energy transfer from a long-lived donor to a nearby acceptor.
For `Cc1nn(C)c2c1Nc1ncc(C(F)(F)F)c(n1)N[C@H](C)CCO2` [Ex-1.4, (R)-1,3,11-trimethyl-8-(trifluoromethyl)-1,4,10,11,12,13-hexahydro-5,9-(azeno)pyrazolo[3,4-b][1]oxa[4,6,10]triazacyclotridecine], the “LRRK2 pIC50” value was 8.93. With `COC(=O)C(C)(C)n1nc(C)c2c1OCC[C@@H](C)Nc1nc(ncc1C(F)(F)F)N2` [Ex-1.5, methyl (R)-2-(3,11-dimethyl-8-(trifluoromethyl)-10,11,12,13-tetrahydro-5,9-(azeno)pyrazolo[3,4-b][1]oxa[4,6,10]triazacyclotridecin-1(4H)-yl)-2-methylpropanoate] the figure was 8.73; with `Cn1nc(C2CC2)c2c1OCC1COCC1Nc1nc(ncc1C(F)(F)F)N2` [Ex-1.6, (10aS,13aS)- or (10aR,13aR)-3-cyclopropyl-1-methyl-8-(trifluoromethyl)-1,4,10a,11,13a,14-hexahydro-10H,13H-5,9-(azeno)furo[3,4-k]pyrazolo[3,4-b][1]oxa[4,6,10]triazacyclotridecine], 6.92. As to `Cn1nc(C2CC2)c2c1OCC1COCC1Nc1nc(ncc1C(F)(F)F)N2` [Ex-1.7, (10aS,13aS)- or (10aR,13aR)-3-cyclopropyl-1-methyl-8-(trifluoromethyl)-1,4,10a,11,13a,14-hexahydro-10H,13H-5,9-(azeno)furo[3,4-k]pyrazolo[3,4-b][1]oxa[4,6,10]triazacyclotridecine], the “LRRK2 pIC50” value is listed as above 10.09.

Regarding `Cn1nc(C2CC2)c2c1OCC1CCC1Nc1nc(ncc1C(F)(F)F)N2` [Ex-1.8, (10aR,12aS)- or (10aS,12aR)-3-cyclopropyl-1-methyl-8-(trifluoromethyl)-1,4,10,10a,11,12,12a,13-octahydro-5,9-(azeno)cyclobuta[k]pyrazolo-[3,4-b][1]oxa[4,6,10]triazacyclo-tridecine], the “LRRK2 pIC50” value is 5.94. For `Cn1nc(C2CC2)c2c1OCC1CCC1Nc1nc(ncc1C(F)(F)F)N2` [Ex-1.9, (10aR,12aS)- or (10aS,12aR)-3-cyclopropyl-1-methyl-8-(trifluoromethyl)-1,4,10,10a,11,12,12a,13-octahydro-5,9-(azeno)cyclobuta[k]pyrazolo-[3,4-b][1]oxa[4,6,10]triazacyclo-tridecine] the value was above 10.09. With `Cn1nc(C2CC2)c2c1OCC1CCC1Nc1nc(ncc1C(F)(F)F)N2` [Ex-1.10, (10aR,12aR)- or (10aS,12aS)-3-cyclopropyl-1-methyl-8-(trifluoromethyl)-1,4,10,10a,11,12,12a,13-octahydro-5,9-(azeno)cyclobuta[k]pyrazolo-[3,4-b][1]oxa[4,6,10]triazacyclo-tridecine] the figure was 6.58. With `Cn1nc(C2CC2)c2c1OCC1CCC1Nc1nc(ncc1C(F)(F)F)N2` [Ex-1.11, (10aR,12aR)- or (10aS,12aS)-3-cyclopropyl-1-methyl-8-(trifluoromethyl)-1,4,10,10a,11,12,- 12a,13-octahydro-5,9-(azeno)cyclobuta[k]pyrazolo[3,4-b][1]oxa[4,6,10]triazacyclotridecine] the figure was above 10.09. With `CCOC(=O)C(C)(C)n1nc(C(C)C)c2c1OCC[C@@H](C)Nc1nc(ncc1C(F)(F)F)N2` [Ex-1.12, ethyl (R)-2-(3-isopropyl-11-methyl-8-(trifluoromethyl)-10,11,12,13-tetrahydro-5,9-(azeno)pyrazolo[3,4-b][1]oxa[4,6,10]triazacyclotridecin-1(4H)-yl)-2-methylpropanoate], the “LRRK2 pIC50” value was below 5.00. Take `Cn1nc(C(F)(F)F)c2c1OC[C@@H]1COC[C@H]1Nc1nc(ncc1Cl)N2` [Ex-1.13, (10aS,13aS)-8-chloro-1-methyl-3-(trifluoromethyl)-1,4,10a,11,13a,14-hexahydro-10H,13H-5,9-(azeno)furo[3,4-k]pyrazolo[3,4-b][1]oxa[4,6,10]triazacyclotridecine]: the “LRRK2 pIC50” value came out at 7.99. In the case of `CC(C)c1nn(C(C)(C)C#N)c2c1Nc1ncc(C(F)(F)F)c(n1)N[C@@H]1COC[C@H]1CO2` [Ex-1.14, 2-((10aS,13aS)-3-isopropyl-8-(trifluoromethyl)-10a,11,13a,14-tetrahydro-10H,13H-5,9-(azeno)furo[3,4-k]pyrazolo[3,4-b][1]oxa[4,6,10]triazacyclotridecin-1(4H)-yl)-2-methylpropanenitrile], the “LRRK2 pIC50” value was 8.66. On to `CC(C)c1nn(C(C)(C)C#N)c2c1Nc1ncc(C3CC3)c(n1)N[C@@H]1COC[C@H]1CO2` [Ex-1.15, 2-((10aS,13aS)-8-cyclopropyl-3-isopropyl-10a,11,13a,14-tetrahydro-10H,13H-5,9-(azeno)furo[3,4-k]pyrazolo[3,4-b][1]oxa[4,6,10]triazacyclotridecin-1(4H)-yl)-2-methylpropanenitrile], for which the “LRRK2 pIC50” value amounted to 8.27. With `CC(C)c1nn(C(C)(C)C#N)c2c1Nc1ncc(Cl)c(n1)N[C@@H]1COC[C@H]1CO2` [Ex-1.16, 2-((10aS,13aS)-8-chloro-3-isopropyl-10a,11,13a,14-tetrahydro-10H,13H-5,9-(azeno)furo[3,4-k]pyrazolo[3,4-b][1]oxa[4,6,10]triazacyclotridecin-1(4H)-yl)-2-methylpropanenitrile] the figure was 9.76; with `CC(C)(C#N)n1nc(C2CC2)c2c1OC[C@@H]1CC[C@H]1Nc1nc(ncc1C(F)(F)F)N2` [Ex-1.17, 2-((10aR,12aR)-3-cyclopropyl-8-(trifluoromethyl)-10,10a,11,12,12a,13-hexahydro-5,9-(azeno)cyclobuta[k]pyrazolo[3,4-b][1]oxa[4,6,10]triazacyclotridecin-1(4H)-yl)-2-methylpropanenitrile], above 10.09; with `CC(C)c1nn(C2CCOC2)c2c1Nc1ncc(C(F)(F)F)c(n1)N[C@@H]1CC[C@H]1CO2` (stereo partly drawn) [Ex-1.18, (10aR,12aR)-3-isopropyl-1-((R)- or (10aR,12aR)-3-isopropyl-1-((S)-tetrahydrofuran-3-yl)-8-(trifluoromethyl)-1,4,10,10a,11,12,12a,13-octahydro-5,9-(azeno)cyclobuta[k]pyrazolo[3,4-b][1]oxa[4,6,10]triazacyclotridecine], above 10.09. With `Cn1nc(C(F)(F)F)c2c1OC[C@@H]1CC[C@H]1Nc1nc(ncc1Cl)N2` [Ex-1.19, (10aR,12aR)-8-chloro-1-methyl-3-(trifluoromethyl)-1,4,10,10a,11,12,12a,13-octahydro-5,9-(azeno)cyclobuta[k]pyrazolo[3,4-b][1]oxa[4,6,10]triazacyclotridecine] the figure was 9.87. Consider `CCn1nc(C(F)(F)F)c2c1OC[C@@H]1COC[C@H]1Nc1nc(ncc1Cl)N2` [Ex-1.20, (10aS,13aS)-8-chloro-1-ethyl-3-(trifluoromethyl)-1,4,10a,11,13a,14-hexahydro-10H,13H-5,9-(azeno)furo[3,4-k]pyrazolo[3,4-b][1]oxa[4,6,10]triazacyclotridecine], for which the “LRRK2 pIC50” value amounted to 9.42.

`CC(C)(O)Cn1nc(C2CC2)c2c1OC[C@@H]1CC[C@H]1Nc1nc(ncc1C(F)(F)F)N2` [Ex-1.21, 1-((10aR,12aR)-3-cyclopropyl-8-(trifluoromethyl)-10,10a,11,12,12a,13-hexahydro-5,9-(azeno)cyclobuta[k]pyrazolo[3,4-b][1]oxa[4,6,10]triazacyclotridecin-1(4H)-yl)-2-methylpropan-2-ol]: the “LRRK2 pIC50” value is given as above 10.09. For `CC(C)c1n[nH]c2c1Nc1ncc(C(F)(F)F)c(n1)N[C@@H]1CC[C@H]1CO2` [Ex-1.22, (10aR,12aR)-3-isopropyl-8-(trifluoromethyl)-1,4,10,10a,11,12,12a,13-octahydro-5,9-(azeno)cyclobuta[k]pyrazolo[3,4-b][1]oxa[4,6,10]triazacyclotridecine] the value was above 10.09; for `Cc1nn(C)c2c1Nc1ncc(C(F)(F)F)c(n1)NCC1(CC1)CO2` [Ex-1.23, 1′,3′-dimethyl-8′-(trifluoromethyl)-1′,4′,10′,11′-tetrahydro-13′H-spiro[cyclopropane-1,12′-[5,9](azeno)pyrazolo[3,4-b][1]oxa[4,6,10]triazacyclotridecine]], 9.47; for `Cc1nn(C2CCC2)c2c1OC[C@@H]1CC[C@H]1Nc1nc(ncc1C(F)(F)F)N2` [Ex-2.3, (10aR,12aR)- or (10aS,12aS)-3-Cyclobutyl-1-methyl-8-(trifluoromethyl)-3,4,10,10a,11,12,12a,13-octahydro-5,9-(azeno)cyclobuta[k]pyrazolo[4,3-b][1]oxa[4,6,10]triazacyclotridecine], 9.12. For `Cc1nn(C2CCC2)c2c1OC[C@@H]1CC[C@H]1Nc1nc(ncc1C(F)(F)F)N2` [Ex-2.4, (10aR,12aR)- or (10aS,12aS)-3-Cyclobutyl-1-methyl-8-(trifluoromethyl)-3,4,10,10a,11,12,12a,13-octahydro-5,9-(azeno)cyclobuta[k]pyrazolo[4,3-b][1]oxa[4,6,10]triazacyclotridecine] the value was 6.66. With `Cc1nn(C)c2c1OCC1(CC1)CNc1nc(ncc1C(F)(F)F)N2` [Ex-2.5, 1′,3′-dimethyl-10′-(trifluoromethyl)-1′,7′,8′,14′-tetrahydro-5′H-spiro[cyclopropane-1,6′-[9,13](azeno)pyrazolo[4,3-b][1]oxa[4,6,10]triazacyclotridecine]] the figure was above 10.09; with `Cc1nn(C)c2c1OCC1CC[C@H]1Nc1nc(ncc1C(F)(F)F)N2` (stereo partly drawn) [Ex-2.10, (10aR,12aR)- or (10aS,12aS)-1,3-dimethyl-8-(trifluoromethyl)-3,4,10,10a,11,12,12a,13-octahydro-5,9-(azeno)cyclobuta[k]pyrazolo[4,3-b][1]oxa[4,6,10]triazacyclotridecine], above 10.09; with `Cc1nn(C)c2c1OCC1CC[C@H]1Nc1nc(ncc1C(F)(F)F)N2` (stereo partly drawn) [Ex-2.11, (10aR,12aS)- or (10aS,12aR)-1,3-dimethyl-8-(trifluoromethyl)-3,4,10,10a,11,12,12a,13-octahydro-5,9-(azeno)cyclobuta[k]pyrazolo[4,3-b][1]oxa[4,6,10]triazacyclotridecine], above 10.09.
